details: [M-H]-; instrument: TW; calibrated with phosphatidylcholines (ESI+) and phosphatidylethanolamines (ESI-), doubly charged cardiolipins calibrated with poly-DL-…

Row | collision cross section (N2) [Å²] | Compound
1 | 210.68 | CCCCCC/C=C/CCCCCCCC(=O)OC[C@@H](O)COP(=O)(O)OCC(O)CO (some centres not stated) [LPG(16:1)]
2 | 266.36 | CCCCCCCCCCCCCCCC(=O)OCC(COP(=O)(O)OCC(O)CO)OC(=O)CCCCCCCC1CC1CCCCCC (configuration not stated) [PG(33:1)]
3 | 220.89 | CCCCCCCCC1CC1CCCCCCCC(=O)O[C@H](CO)COP(=O)(O)OCC(O)CO (some centres not stated) [LPG(19:1)]
4 | 255.63 | CCCCCCCC/C=C\CCCCCCCC(=O)OC(COC(=O)CCCCCCCCCCCCCCC)COP(=O)(O)O (configuration not stated) [PA(34:1)]
5 | 270.25 | CCCCCCCC/C=C\CCCCCCCC(=O)OC(COC(=O)CCCCCCCCCCCCCCCCC)COP(=O)(O)OCCN (configuration not stated) [PE(36:1)]
6 | 198.83 | CCCCCCCCCCCCCC(=O)O[C@H](CO)COP(=O)([O-])OCC[NH3+] [LPE(0:0/14:0)]
7 | 276.25 | CCCCCCCC/C=C\CCCCCCCC(=O)OC(COC(=O)CCCCCCCCCCCCCCCCC)COP(=O)(O)OCC(O)CO (configuration not stated) [PG(36:1)]
8 | 322.71 | CCCCCC/C=C\CCCCCCCC(=O)OC[C@H](COP(=O)(O)OC[C@@H](O)COC(=O)CCCCCCCCCCCCCCC)OC(=O)CCCCCCC/C=C\CCCCCCCC [AcylPG(50:2)]
9 | 252.34 | CCCCCCCCCCCCCCCC(=O)OCC(COP(=O)(O)OCCN)OC(=O)CCCCCCCC1CC1CCCC (configuration not stated) [PE(31:1)]

details: [M+H-H2O]+; instrument: TW; calibrated with phosphatidylcholines (ESI+) and phosphatidylethanolamines (ESI-)

Row | collision cross section (N2) [Å²] | Compound
10 | 299.7 | CCCCC/C=C\C/C=C\C/C=C\C/C=C\CCCC(=O)O[C@H](COC(=O)CCCCCCC/C=C\CCCCCCCC)COP(=O)(O)O[C@H]1C(O)C(O)C(O)[C@@H](OP(=O)(O)O)C1O (some centres not stated) [PIP(38:5)]

same assay, conditions: [M+H]+; instrument: TW; calibrated with phosphatidylcholines (ESI+) and phosphatidylethanolamines (ESI-)

Row | collision cross section (N2) [Å²] | Compound
11 | 282.4 | CCCCCCCCCCCCC=CC[C@@H](O)[C@H](CO)NC(=O)CC=CCCCCCCCCCCCCCCCCCCCCCC [Cer(d18:1/26:1)]
12 | 278.1 | CCCCC/C=C\C/C=C\CCCCCCCCCC(=O)O[C@H](CO/C=C\CCCCCCCCCCCCCC)COP(=O)(O)OCCN [PE(p36:2)]
13 | 286.6 | CCCCCCCCCCCCC=CC[C@@H](O)[C@H](COP(=O)([O-])OCC[N+](C)(C)C)NC(=O)CCCCCCCCCCCCCCCCC [SM(d18:1/18:0)]
14 | 281.8 | CCCCCCCCCCCCC=CC[C@@H](O)[C@H](CO[C@@H]1O[C@H](CO)[C@@H](O)C(O)C1O)NC(=O)CC=CCCCCCCCCCCCCCC (some centres not stated) [GlcCer(d18:1/18:1)]
15 | 281.1 | CCCCCCCCCCCCC=CC[C@@H](O)[C@H](COP(=O)([O-])OCC[N+](C)(C)C)NC(=O)CCCCCCCCCCCCCCC [SM(d18:1/16:0)]
16 | 280.6 | CCCCC/C=C\C/C=C\C/C=C\C/C=C\CCCCCC(=O)O[C@H](CO/C=C\CCCCCCCCCCCCCC)COP(=O)(O)OCCN [PE(p38:4)]
17 | 232.4 | CC/C=C\C/C=C\C/C=C\C/C=C\CCCCCCC(=O)OC[C@@H](O)COP(=O)([O-])OCC[N+](C)(C)C [LPC(20:4)]
18 | 291.6 | CC/C=C\C/C=C\C/C=C\C/C=C\CCCCC(=O)OC[C@H](COP(=O)([O-])OCC[N+](C)(C)C)OC(=O)CCCCC/C=C\C/C=C\C/C=C\C/C=C\CCCCC [PC(40:8)]
19 | 296.1 | CCCCC/C=C\C/C=C\CCCCCCCCCCCC(=O)O[C@H](COC(=O)CCCCCCC/C=C\C/C=C\CCCCC)COP(=O)([O-])OCC[N+](C)(C)C [PC(40:4)]
20 | 263.1 | CCCCCCCCCCCCCCCCCC(=O)N[C@@H](CO)[C@H](O)CCCCCCCCCCCCCCC [Cer(d18:0/18:0)]
21 | 269.1 | CCCCCCCCCCCCCCCCCCCC(=O)N[C@@H](CO)[C@H](O)CCCCCCCCCCCCCCC [Cer(d18:0/20:0)]
22 | 281.4 | CCCCC/C=C\C/C=C\C/C=C\CCCCCCC(=O)O[C@H](CO/C=C\CCCCCCCCCCCCCCCC)COP(=O)(O)OCCN [PE(p38:3)]
23 | 274.2 | CC/C=C\C/C=C\C/C=C\C/C=C\C/C=C\CCCC(=O)O[C@H](CO/C=C\CCCCCCCCCCCCCC)COP(=O)(O)OCCN [PE(p36:5)]
24 | 270.2 | CCCCCCCCCCCCC=CC[C@@H](O)[C@H](CO)NC(=O)CC=CCCCCCCCCCCCCCCCCCC [Cer(d18:1/22:1)]
25 | 295 | CCCCCCCCCCCCC=CC[C@@H](O)[C@H](COP(=O)([O-])OCC[N+](C)(C)C)NC(=O)CC=CCCCCCCCCCCCCCCCCCC [SM(d18:1/22:1)]
26 | 279.7 | CCCCCC/C=C\CCCCCCCC(=O)O[C@H](CO/C=C\CCCCCCCCCCCCCCCCCC)COP(=O)(O)OCCN [PE(p36:1)]
27 | 239 | CCCCC/C=C\C/C=C\C/C=C\CCCCCCC(=O)OC[C@@H](O)COP(=O)([O-])OCC[N+](C)(C)C [LPC(20:3)]
28 | 298.2 | CCCCCCCCCCCCC=CC[C@@H](O)[C@H](CO[C@@H]1O[C@H](CO)[C@@H](O)C(O)C1O)NC(=O)CC=CCCCCCCCCCCCCCCCCCCCC (some centres not stated) [GlcCer(d18:1/24:1)]

same assay, conditions: [M+Na]+; instrument: TW; calibrated with phosphatidylcholines (ESI+) and phosphatidylethanolamines (ESI-)

Row | collision cross section (N2) [Å²] | Compound
29 | 290 | CC/C=C\C/C=C\C/C=C\C/C=C\CCCCC(=O)O[C@H](COC(=O)CCCCCCCCCCC/C=C\C/C=C\CCCCC)COP(=O)(O)OC[C@@H](O)CO [PG(40:6)]
30 | 297.3 | CCCCCCCCCCCCC=CC[C@@H](O)[C@H](CO[C@@H]1O[C@H](CO)[C@@H](O)C(O)C1O)NC(=O)CC=CCCCCCCCCCCCCCCCCCCCC (some centres not stated) [GlcCer(d18:1/24:1)]

same assay, conditions: [M-H]-; instrument: TW; calibrated with phosphatidylcholines (ESI+) and phosphatidylethanolamines (ESI-)

Row | collision cross section (N2) [Å²] | Compound
31 | 281.9 | CC/C=C\C/C=C\C/C=C\C/C=C\CCCCC(=O)O[C@H](COC(=O)CCCCCCCCCCC/C=C\C/C=C\CCCCC)COP(=O)(O)OC[C@@H](O)CO [PG(40:6)]
32 | 266.5 | CCCCC/C=C\C/C=C\CCCCCCCCCC(=O)O[C@H](CO/C=C\CCCCCCCCCCCCCC)COP(=O)(O)OCCN [PE(p36:2)]
33 | 259.5 | CCCCC/C=C\C/C=C\CCCCCCCC(=O)O[C@H](COC(=O)CCCCCCCCCCCCCCCCC)COP(=O)(O)O [PA(36:2)]
34 | 270.3 | CCCCC/C=C\C/C=C\C/C=C\C/C=C\CCCCCC(=O)O[C@H](CO/C=C\CCCCCCCCCCCCCC)COP(=O)(O)OCCN [PE(p38:4)]
35 | 270.9 | CCCCC/C=C\C/C=C\C/C=C\CCCCCCC(=O)O[C@H](CO/C=C\CCCCCCCCCCCCCCCC)COP(=O)(O)OCCN [PE(p38:3)]
36 | 260.2 | CCCCCCCCCCCCC=CC[C@@H](O)[C@H](CO)NC(=O)CC=CCCCCCCCCCCCCCCCCCC [Cer(d18:1/22:1)]
37 | 267.3 | CCCCCC/C=C\CCCCCCCC(=O)O[C@H](CO/C=C\CCCCCCCCCCCCCCCCCC)COP(=O)(O)OCCN [PE(p36:1)]
